Source: publication PMC4589873, “A pain-inducing centipede toxin targets the heat activation machinery of nociceptor TRPV1” (Nature Communications, 2015)
“Also recorded” adds a separate entry of the source. Where a SMILES comes first, the peptide text is derived from it. Bridges are numbered along the chain shown (N, C = ends).

Tests used:
[1] = tested on: Trpv1−/− knockout mice; assay: Paw-licking assay in TRPV1 knockout mice; type: in vivo, mouse; conditions: intraplantar, 1 μmol per paw
Procedure: In vivo effects of RhTx on WT mice or Trpv1^−/− mice were examined according to protocols described previously. For the paw-licking assay, pain was induced in mice by intraplantar injection of 0.1% formalin, capsaicin (1 μmol per paw) or RhTx (1 μmol per paw). Each of the testing materials was dissolved in 100 μl saline. Control mice received the same volume of saline. Injected mice were placed individually into open polyvinyl cages (20 × 40 × 15 cm). Time spent licking the injected paw was recorded by a digital video camera during the following 40 min. For recording colonic temperature from WT or Trpv1^−/− mice, mice equipped with a copper-constantan thermocouple were individually placed in open polyvinyl cages. A data logger was connected to the thermocouple. Mice were injected intraperitoneally with 100 μl saline containing capsaicin or RhTx. The dose of capsaicin or RhTx was 10 μmol kg^−1 for these experiments. Mice in the control group received the same volume of saline.

[2] = tested on: voltage-gated Na channels; assay: Selectivity recording on voltage-gated Na channels; type: cell-based; conditions: 10 μM RhTx compared to toxin-free treatment
Procedure: (§1) Supplementary Figure 3. […]
(§2) mTRPV2 (c), mTRPV3 (d) and mTRPV4 (e). (f) Treatment with 10 μM RhTx (red traces)

[3] = tested on: voltage-gated Ca channels; assay: Selectivity recording on voltage-gated Ca channels; type: cell-based; conditions: 10 μM RhTx compared to toxin-free treatment
Procedure: as §1, §2

[4] = Small unilamellar vesicle-binding assay; type: physicochemical
Procedure: After the film rinsed with pentane was lyophilized at −40 °C overnight, the lipid was suspended with a buffer (10 mM HEPES, 50 mM KCl at pH 7.0). POPE (1-palmitoyl-2-oleoyl-phosphatidylethanolamine, 10 mg ml^−1) and POPG (1-palmitoyl-2-oleoylphosphatidyl-Dl-glycerol, 10 mg ml^−1) were mixed in a 3:1 ratio for POPE/POPG vesicle preparation. In total, 150 mM KCl was used instead of 50 mM KCl. The suspended lipid was then sonicated (in ice water) until the solution became transparent. RhTx was mixed with 10 mg ml^−1 (total concentration) small unilamellar vesicle (SUVs). The mixture was incubated for 40 min at room temperature before ultracentrifugation. Toxin–vesicle mixtures were centrifuged at 304,000g for 150 min. The residual toxins in the supernatant were evaluated by RP-HPLC using a linear gradient of acetonitrile containing 0.1% v/v trifluoroacetic acid.

[5] = molecular target: T1, mTRPV1 (Mus musculus, UniProt Q704Y3); assay: Inside-out patch, toxin applied from the intracellular side; type: cell-based; conditions: inside-out patch containing mTRPV1, holding 0 mV, testing +80 mV
T1 construct: expressed in transfected cells; host or cells: HEK-293T
Procedure: (§3) As described in details in a previous report, macroscopic currents (in whole-cell, inside-out or outside-out configuration) as well as single-channel currents were recorded using a HEKA EPC10 amplifier with the PatchMaster software (HEKA). Both pipette solution and bath solution contained 130 mM NaCl, 3 mM HEPES and 0.2 mM EDTA (pH 7.2). All recordings were performed at room temperature unless otherwise stated. A holding potential of 0 mV was used from which a testing pulse to +80 mV was applied. Statistical difference was determined using the Student’s t-test, and indicated by ** when reaching the significance level P<0.001.

[6] = tested on: TRPV1; assay: Infrared laser-induced heat activation, inside-out patch; type: cell-based
Procedure: The experimental set-up for rapidly heating cell membrane containing expressed TRPV1 channels was described in a previous report. Electrophysiological recordings were done in the inside-out mode. Toxin was added in the pipette solution. Laser light of 1,443 nm was generated by a laser diode (Fitel) driven by a controller (Thorlabs). The maximal optic output power of the laser was 250 mW. The laser light was transmitted to the voltage-clamped cell membrane through a single-mode optical fibre (125 μm outer diameter, 10 μm light-conducting core diameter), with the patch pipette tip placed in front of the centre of the optical fibre. Light energy was absorbed by water and converted to heat to drive channel activation. To calibrate the laser heating system, the relationship between laser driving power and temperature was tabulated as previously described. Briefly, a glass pipette was filled with a solution distinct from the bath solution and was centred at the end of the optical fibre. The laser driving power was adjusted to produce junction potential values matching those measured in the same solutions at different temperatures.

[7] = tested on: TRPV1; assay: Single-channel recording of TRPV1; type: cell-based; conditions: single-channel analysis
Procedure: as §3

[8] = tested on: hTRPV1; assay: Whole-cell recording of hTRPV1; type: cell-based, human
Procedure: as §3
Supplementary Figure 3. […] (a) A representative whole-cell recording of hTRPV1 treated with RhTx or capsaicin. (b) Comparison of the dose-response relationships between hTRPV1 and mTRPV1. […]
mTRPV2 (c), mTRPV3 (d) and mTRPV4 (e). (f) Treatment with 10 μM RhTx (red traces) […]
(1 picture or pasted object on this page, not shown here)

[9] = tested on: dorsal root ganglion (DRG) neurons; assay: Calcium imaging of DRG neurons (Fluo-4); type: cell-based, mouse; conditions: RhTx 10 μM, capsaicin 10 μM
Procedure: Mouse DRG neurons were acutely dissociated and maintained in a short-term primary culture according to procedures as previous descripted. DRG neurons or HEK-293T cells were loaded with Fluo-4 AM in 2 mM Ca^2+ Ringer’s solution (140 mM NaCl, 5 mM KCl, 2 mM MgCl2, 10 mM glucose, 2 mM CaCl2 and 10 mM HEPES, pH 7.4). Fluorescence images of DRG neurons and HEK-293T cells were acquired with an Olympus IX81 microscope with Hamamatsu C4742 charge-coupled device camera controlled by the MetaFluor Software (Molecular Devices). Fluo-4 was excited by a mercury vapour light source with a 500/20-nm excitation filter, while fluorescence emission was detected with a 535/30-nm emission filter. Fluorescence images were required with automated routines written in MetaMorph software (Molecular Devices) and analysed with Igor Pro (Wavemetrics).

T1 sequence (Q704Y3 whole entry): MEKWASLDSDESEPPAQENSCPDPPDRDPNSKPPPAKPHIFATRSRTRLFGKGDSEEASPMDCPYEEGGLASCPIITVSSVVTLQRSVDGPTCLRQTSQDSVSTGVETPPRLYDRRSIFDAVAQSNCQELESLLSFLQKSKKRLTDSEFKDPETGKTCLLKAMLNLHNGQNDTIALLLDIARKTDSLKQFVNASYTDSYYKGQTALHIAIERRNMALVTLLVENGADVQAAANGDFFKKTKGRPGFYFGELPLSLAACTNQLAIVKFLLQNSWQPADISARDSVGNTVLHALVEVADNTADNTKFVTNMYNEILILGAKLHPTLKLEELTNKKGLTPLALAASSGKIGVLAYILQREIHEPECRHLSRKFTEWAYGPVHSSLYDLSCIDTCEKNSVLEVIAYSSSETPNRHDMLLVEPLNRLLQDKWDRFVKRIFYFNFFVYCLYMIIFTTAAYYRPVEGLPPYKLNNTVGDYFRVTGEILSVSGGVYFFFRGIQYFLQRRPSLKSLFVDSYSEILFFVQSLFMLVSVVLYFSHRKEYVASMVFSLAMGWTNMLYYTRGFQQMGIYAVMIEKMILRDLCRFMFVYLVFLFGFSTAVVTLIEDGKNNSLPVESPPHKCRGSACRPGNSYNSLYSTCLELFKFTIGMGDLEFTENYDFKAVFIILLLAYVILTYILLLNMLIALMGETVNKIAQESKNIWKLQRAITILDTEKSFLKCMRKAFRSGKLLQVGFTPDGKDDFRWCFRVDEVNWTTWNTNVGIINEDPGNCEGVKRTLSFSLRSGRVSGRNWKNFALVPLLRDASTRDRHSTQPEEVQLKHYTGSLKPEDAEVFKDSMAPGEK

CC[C@H](C)[C@H](NC(=O)[C@@H]1CSSC[C@@H]2NC(=O)[C@H]([C@@H](C)O)NC(=O)[C@H](C(C)C)NC(=O)CNC(=O)[C@H](CC(N)=O)NC(=O)[C@@H](NC(=O)[C@@H]3CCCN3C(=O)[C@H](CC(N)=O)NC(=O)[C@H](CC(N)=O)NC(=O)[C@@H](N)CC(C)C)CSSC[C@H](NC(=O)[C@H](CCCNC(=N)N)NC(=O)[C@H](Cc3ccc(O)cc3)NC(=O)CNC(=O)[C@H](CO)NC(=O)[C@@H]3CCCN3C2=O)C(=O)N[C@@H](CO)C(=O)N[C@@H]([C@@H](C)CC)C(=O)N[C@@H](C(C)C)C(=O)N[C@@H](CC(=O)O)C(=O)N[C@@H](CCCCN)C(=O)N[C@@H](CCC(N)=O)C(=O)N1)C(=O)N[C@@H](CCCCN)C(=O)N[C@@H](CCCCN)C(=O)N[C@@H](CCC(=O)O)C(=O)O [RhTx] (H-LNNPCNGVTCPSGYRCSIVDKQCIKKE-OH; disulfide 5-16, 10-23; N-terminus and C-terminus assumed)
pain behaviour (paw licking) in knockout mice [1]: ineffective | effect on voltage-gated Na channels [2]: no detectable effect; also recorded: no discernable response | effect on voltage-gated Ca channels [3]: no detectable effect; also recorded: no discernable response | RP-HPLC chromatograph before versus after treatment with POPC ([4]; 0.1 mg RhTx, POPC SUVs 10 mg/ml, 10 mM HEPES, 50 mM KCl, pH 7.0, 40 min room temperature, supernatant RP-HPLC): No difference | RP-HPLC chromatograph before versus after treatment with POPE/POPG ([4]; 0.1 mg RhTx, POPE/POPG 3:1 SUVs 10 mg/ml, 150 mM KCl, 40 min room temperature, supernatant RP-HPLC): No difference | incorporation into the lipid membrane (initial partition experiments) ([4]; SUVs 10 mg/ml, 40 min at room temperature, ultracentrifugation 304,000g 150 min, supernatant by RP-HPLC): does not incorporate into the lipid membrane | activity when applied from the intracellular side [5]: completely ineffective; also recorded: no activity | effect on infrared laser-induced heat activation, 50 nM ([6]; RhTx at 50 nM in pipette, inside-out patch, +80 mV): substantially potentiated | lowering of the activation threshold temperature ([6]; RhTx at 100 nM): 6 °C | effect on infrared laser-induced heat activation, 100 nM ([6]; RhTx at 100 nM in pipette, inside-out patch, +80 mV): substantially potentiated | inward single-channel current amplitude compared with capsaicin-elicited currents [7]: noticeable reduction | open probability [7]: near unity | activation of human TRPV1 [8]: strongly activated | intracellular calcium increase in capsaicin-responsive DRG neurons [9]: nearly as strong as capsaicin
